Earlier results, collected in patent US7498130B2, “Method of reducing viral load” (Massachusetts General Hospital, priority 2003, dated 2009).

Experiments:
HIV = settings: infected cells
[1] = in vivo

Substance: antithrombin III [ATIII]
- lowering HIV viral loads (HIV): inactive
- overall elimination half-life [1]: 18.6 h
